US7348427B2, “Antipathogenic benzamide compounds” (Genesoft Pharmaceuticals, Inc., priority 2001, dated 2008)
≈ marks a conversion by molar mass, not a printed value.

What was measured:
[1] = system: Bacillus cereus (ATCC 11778); assay: MIC, NCCLS broth microdilution assay; assay type: cell-based; conditions: A = B. cereus ATCC 11778
From the text: (§1) In vitro biological activity data were collected for a variety of microorganisms, including Bacillus cereus (ATCC 11778), Staphylococcus aureus (ATCC 27660, a methicillin resistant strain (MRSA); ATCC 13709, a methicillin sensitive strain (MSSA)); Streptococcus pneumoniae (ATCC 51422, a penicillin resistant strain (PRSP)), Enterococcus faecium (ATCC 51559, a vancomycin resistant strain (VRE)), and Staphylococcus epidermidis (ATCC 12228). Additionally, antifungal activity data were collected for Candida albicans (ATCC 38247).
(§2) Compounds according to this invention were screened for their in vitro activities against selected species of bacteria and fungi. The minimal inhibition concentration (MIC) of these compounds was determined using the National Committee for Clinical Laboratory Standards (NCCLS) broth microdilution assay in microtiter plates, as set forth in: (1) the guidelines of the National. Committee for Clinical Laboratory Standards (NCCLS) Document M7-A4 (NCCLS, 1997); (2) the guidelines of the National Committee for Clinical Laboratory Standards (NCCLS) Document M11-A4 (NCCLS, 1997); and (3) the guidelines and reference method of the National Committee for Clinical Laboratory Standards (NCCLS) Document M27-T (NCCLS, 1995). For antifungal assays, the method recommended in Murray, P R., 1995 Manual of Clinical Microbiology (ASM Press, Washington, D.C.), was employed.

[2] = system: Staphylococcus aureus (ATCC 13709, a methicillin sensitive strain (MSSA)); assay: MIC, NCCLS broth microdilution assay; assay type: cell-based; conditions: E = S. aureus ATCC 13709
From the text: as §1, §2

[3] = system: Staphylococcus aureus (ATCC 27660, a methicillin resistant strain (MRSA)); assay: MIC, NCCLS broth microdilution assay; assay type: cell-based; conditions: F = S. aureus ATCC 27660
From the text: as §1, §2

[4] = system: Candida albicans (ATCC 38247); assay: Antifungal MIC assay; assay type: cell-based; conditions: B = C. albicans ATCC 38247
From the text: as §1, §2

E. faecalis ATCC 29212 = assay: MIC, NCCLS broth microdilution assay; assay type: cell-based, Enterococcus faecalis; conditions: C = E. faecalis ATCC 29212
Procedure: as §2

S. pneumoniae ATCC 49619 = assay: MIC, NCCLS broth microdilution assay; assay type: cell-based, Streptococcus pneumoniae; conditions: H = S. pneumoniae ATCC 49619
Procedure: as §2

[5] = Staphylococcus aureus, read-out: Minimum Inhibitory Concentration (MIC)

Structure (SMILES)	Minimum Inhibitory Concentration (MIC) [1]	Minimum Inhibitory Concentration (MIC) [4]	Minimum Inhibitory Concentration (MIC) (E. faecalis ATCC 29212)	Minimum Inhibitory Concentration (MIC) (S. pneumoniae ATCC 49619)	MIC ([1]; Bacillus cereus, ATCC11778, read-out: Minimum Inhibitory Concentration (MIC))	MIC [2, 5]	MIC [3, 5]	MIC ([4]; Candida albicans, ATCC38247, read-out: Minimum Inhibitory Concentration (MIC))	MIC (E. faecalis ATCC 29212; Enterococcus faecalis, ATCC29212, read-out: Minimum Inhibitory Concentration (MIC))	MIC (S. pneumoniae ATCC 49619; Streptococcus pneumoniae, ATCC49619, read-out: Minimum Inhibitory Concentration (MIC))	Minimum Inhibitory Concentration (MIC) [2]	Minimum Inhibitory Concentration (MIC) [3]
Cn1cc(NC(=O)c2cc(NC(=O)c3cc(NC(=O)c4ccc(F)cc4F)c[nH]3)cn2C)cc1C(=O)NCCN1CCOCC1 [Compound A-1]	+++ (+++ = MIC ≦ 4)	>32 µg/mL	+++ (+++ = MIC ≦ 4)	+++ (+++ = MIC ≦ 4)							+++ (+++ = MIC ≦ 4)	++ (++ = 4 < MIC < 12)
C[C@@H]1CN(CCNC(=O)c2cc(NC(=O)c3cc(NC(=O)c4cc(NC(=O)c5ccc(F)cc5F)c[nH]4)cn3C)cn2C)C[C@H](C)O1 [Compound A-5]	+ (+ = 12 ≦ MIC ≦ 32)	>32 µg/mL	+++ (+++ = MIC ≦ 4)	++ (++ = 4 < MIC < 12)							+++ (+++ = MIC ≦ 4)	+++ (+++ = MIC ≦ 4)
C[C@@H]1CCC[C@H](C)N1CCNC(=O)c1cc(NC(=O)c2cc(NC(=O)c3cc(NC(=O)c4ccc(F)cc4F)c[nH]3)cn2C)cn1C [Compound A-10]	+++ (+++ = MIC ≦ 4)	++ (++ = 4 < MIC < 12)	++ (++ = 4 < MIC < 12)	+++ (+++ = MIC ≦ 4)							+++ (+++ = MIC ≦ 4)	+++ (+++ = MIC ≦ 4)
Cn1cc(NC(=O)c2cc(NC(=O)c3cc(NC(=O)c4ccc(F)cc4F)c[nH]3)cn2C)cc1C(=O)NCCCN1CCC(O)CC1 [Compound A-11]	+ (+ = 12 ≦ MIC ≦ 32)	+ (+ = 12 ≦ MIC ≦ 32)	+ (+ = 12 ≦ MIC ≦ 32)	+ (+ = 12 ≦ MIC ≦ 32)							++ (++ = 4 < MIC < 12)	+ (+ = 12 ≦ MIC ≦ 32)
CN(C)CC(C)(C)CNC(=O)c1cc(NC(=O)c2cc(NC(=O)c3cc(NC(=O)c4ccc(Cl)cc4F)c[nH]3)cn2C)cn1C [Compound A-14]	+++ (+++ = MIC ≦ 4)	+ (+ = 12 ≦ MIC ≦ 32)	+++ (+++ = MIC ≦ 4)	+++ (+++ = MIC ≦ 4)							+++ (+++ = MIC ≦ 4)	+++ (+++ = MIC ≦ 4)
CN(C)CCCCNC(=O)c1cc(NC(=O)c2cc(NC(=O)c3cc(NC(=O)c4ccc(Cl)cc4F)c[nH]3)cn2C)cn1C [Compound A-15]	+++ (+++ = MIC ≦ 4)	+ (+ = 12 ≦ MIC ≦ 32)	+++ (+++ = MIC ≦ 4)	+++ (+++ = MIC ≦ 4)							+++ (+++ = MIC ≦ 4)	+++ (+++ = MIC ≦ 4)
Cn1cc(NC(=O)c2cc(NC(=O)c3ccc(Cl)cc3F)c[nH]2)cc1C(=O)NCCN1CCCC1 [Compound A-19]	+ (+ = 12 ≦ MIC ≦ 32)	>32 µg/mL	+++ (+++ = MIC ≦ 4)	+++ (+++ = MIC ≦ 4)							++ (++ = 4 < MIC < 12)	+++ (+++ = MIC ≦ 4)
Cn1cc(NC(=O)c2cc(NC(=O)c3cc(NC(=O)c4ccccc4Cl)cn3C)cn2C)cc1C(=O)NCCN1CCOCC1 [Compound B-60]	+ (+ = 12 ≦ MIC ≦ 32)	>32 µg/mL	+ (+ = 12 ≦ MIC ≦ 32)	+ (+ = 12 ≦ MIC ≦ 32)								

Second part, led by results:

Minimum Inhibitory Concentration (MIC) [1]	Minimum Inhibitory Concentration (MIC) [4]	Minimum Inhibitory Concentration (MIC) (E. faecalis ATCC 29212)	Minimum Inhibitory Concentration (MIC) (S. pneumoniae ATCC 49619)	MIC ([1]; Bacillus cereus, ATCC11778, read-out: Minimum Inhibitory Concentration (MIC))	MIC [2, 5]	MIC [3, 5]	MIC ([4]; Candida albicans, ATCC38247, read-out: Minimum Inhibitory Concentration (MIC))	MIC (E. faecalis ATCC 29212; Enterococcus faecalis, ATCC29212, read-out: Minimum Inhibitory Concentration (MIC))	MIC (S. pneumoniae ATCC 49619; Streptococcus pneumoniae, ATCC49619, read-out: Minimum Inhibitory Concentration (MIC))	Structure (SMILES)	Minimum Inhibitory Concentration (MIC) [2]	Minimum Inhibitory Concentration (MIC) [3]
				12 to 32 µg/mL (≈ 23.2 to 61.9 µM)	4 to 12 µg/mL (≈ 7.74 to 23.2 µM)	4 to 12 µg/mL (≈ 7.74 to 23.2 µM)	> 32 µg/mL	≤ 4 µg/mL	≤ 4 µg/mL	Cn1cc(NC(=O)c2cc(NC(=O)c3ccc(Cl)cc3F)c[nH]2)cc1C(=O)NCCN1CCOCC1 [Compound A-17]		
+++ (+++ = MIC ≦ 4)	+ (+ = 12 ≦ MIC ≦ 32)	++ (++ = 4 < MIC < 12)	+ (+ = 12 ≦ MIC ≦ 32)							Cn1cc(NC(=O)c2cc(NC(=O)c3cc(NC(=O)c4ccc(Cl)cc4)c[nH]3)cn2C)cc1C(=O)NCCN1CCOCC1 [Compound A-34]		
++ (++ = 4 < MIC < 12)	>32 µg/mL	+++ (+++ = MIC ≦ 4)	+++ (+++ = MIC ≦ 4)							Cn1cc(NC(=O)c2cc(NC(=O)c3ccc(F)cc3F)cn2C)cc1C(=O)NCCN1CCOCC1 [Compound B-2]		
++ (++ = 4 < MIC < 12)	>32 µg/mL	+++ (+++ = MIC ≦ 4)	+++ (+++ = MIC ≦ 4)							Cn1cc(NC(=O)c2cc(NC(=O)c3cc(NC(=O)c4ccc(F)c(F)c4)cn3C)cn2C)cc1C(=O)NCCN1CCOCC1 [Compound B-31]		
+ (+ = 12 ≦ MIC ≦ 32)	>32 µg/mL	+ (+ = 12 ≦ MIC ≦ 32)	+ (+ = 12 ≦ MIC ≦ 32)							Cn1cc(NC(=O)c2cc(NC(=O)c3cc(NC(=O)c4cccc(F)c4)cn3C)cn2C)cc1C(=O)NCCN1CCOCC1 [Compound B-38]		
++ (++ = 4 < MIC < 12)	>32 µg/mL	++ (++ = 4 < MIC < 12)	+++ (+++ = MIC ≦ 4)							Cn1cc(NC(=O)c2cc(NC(=O)c3cc(NC(=O)c4ccc(F)cc4Cl)cn3C)cn2C)cc1C(=O)NCCN1CCOCC1 [Compound B-45]		
+++ (+++ = MIC ≦ 4)	>32 µg/mL	+++ (+++ = MIC ≦ 4)	+++ (+++ = MIC ≦ 4)							Cn1cc(NC(=O)c2cc(NC(=O)c3cc(NC(=O)c4ccc(F)c(Cl)c4)cn3C)cn2C)cc1C(=O)NCCN1CCOCC1 [Compound B-46]		
>32 µg/mL	>32 µg/mL	>32 µg/mL	>32 µg/mL							Cn1cc(NC(=O)c2cc(NC(=O)c3cc(NC(=O)c4c(Cl)cccc4Cl)cn3C)cn2C)cc1C(=O)NCCN1CCOCC1 [Compound B-52]		
+++ (+++ = MIC ≦ 4)	>32 µg/mL	+++ (+++ = MIC ≦ 4)	+++ (+++ = MIC ≦ 4)							Cn1cc(NC(=O)c2cc(NC(=O)c3cc(NC(=O)c4ccc(Cl)cc4Cl)cn3C)cn2C)cc1C(=O)NCCN1CCOCC1 [Compound B-55]		
+ (+ = 12 ≦ MIC ≦ 32)	>32 µg/mL	+++ (+++ = MIC ≦ 4)	+++ (+++ = MIC ≦ 4)							Cn1cc(NC(=O)c2cc(NC(=O)c3ccc(Cl)cc3)cn2C)cc1C(=O)NCCN1CCOCC1 [Compound B-57]		
+ (+ = 12 ≦ MIC ≦ 32)	>32 µg/mL	++ (++ = 4 < MIC < 12)	++ (++ = 4 < MIC < 12)							Cn1cc(NC(=O)c2cc(NC(=O)c3cc(NC(=O)c4cccc(Cl)c4)cn3C)cn2C)cc1C(=O)NCCN1CCOCC1 [Compound B-59]		
+ (+ = 12 ≦ MIC ≦ 32)	>32 µg/mL	++ (++ = 4 < MIC < 12)	+ (+ = 12 ≦ MIC ≦ 32)							Cn1cc(NC(=O)c2cc(NC(=O)c3cc(NC(=O)c4cccc(C(F)(F)F)c4)cn3C)cn2C)cc1C(=O)NCCN1CCOCC1 [Compound B-70]		
+ (+ = 12 ≦ MIC ≦ 32)	>32 µg/mL	++ (++ = 4 < MIC < 12)	+++ (+++ = MIC ≦ 4)							Cn1cc(NC(=O)c2cc(NC(=O)c3cc(NC(=O)c4ccc(C(F)(F)F)cc4)cn3C)cn2C)cc1C(=O)NCCN1CCOCC1 [Compound B-71]		
